Article PMC3003687, “α-Galactosylceramide Analogs with Weak Agonist Activity for Human iNKT Cells Define New Candidate Anti-Inflammatory Agents” (PLoS ONE, 2010)

Assays:
[1] = molecular target: T1, hCD1d (Homo sapiens, UniProt P15813); assay: Loading of hCD1d tetramers with variable glycolipid to CD1d ratios; format: binding; conditions: for lipid excess at which tetramers were efficiently loaded: 20 nM tetramers, 25 to 1000 fold molar excess of glycolipid to hCD1d, HDD3 clone
T1 construct: we generated soluble and fluorescent tetrameric hCD1d molecules loaded with each of the glycolipid analogs; made in house
T1 sequence (P15813 20-301 limits assumed): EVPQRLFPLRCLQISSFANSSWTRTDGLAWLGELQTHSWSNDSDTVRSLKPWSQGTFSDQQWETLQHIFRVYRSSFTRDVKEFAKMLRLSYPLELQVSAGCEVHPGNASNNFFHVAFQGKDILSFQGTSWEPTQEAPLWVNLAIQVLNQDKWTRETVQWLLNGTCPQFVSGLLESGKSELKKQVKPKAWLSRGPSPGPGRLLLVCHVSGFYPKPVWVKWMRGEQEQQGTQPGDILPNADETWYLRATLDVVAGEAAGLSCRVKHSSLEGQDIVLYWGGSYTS
T1 sequence (P61769 21-119 partner): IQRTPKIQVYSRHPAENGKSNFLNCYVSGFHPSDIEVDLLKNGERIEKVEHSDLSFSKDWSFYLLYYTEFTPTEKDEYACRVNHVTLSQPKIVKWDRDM
Source text: (§1) To characterize in more detail the iNKT cell TCR recognition of αGalCer analogs presented by human CD1d, we generated soluble and fluorescent tetrameric hCD1d molecules loaded with each of the glycolipid analogs. […] This was similar to the previously reported failure of mouse CD1d tetramer loaded with lysosulfatide to bind detectably to murine non-invariant and sulfatide specific NKT cells, despite a clear reactivity to this lipid upon presentation by APCs; [40]. […] To quantitate their binding avidities to iNKT cell TCRs, we used titration of analog-loaded hCD1d tetramers to determine equilibrium dissociation constants (KD), which are inversely proportional to avidity (Figure 3A and 3B).
(§2) Figure 3 Characterization of human iNKT cell TCR interactions with analog-loaded tetramers. (A) iNKT cell clones were stained with titrated amounts of hCD1d tetramers loaded with the indicated glycolipids (abbreviations as in legend to Figure 1), and the measured MFI values are plotted for selected glycolipids. (B) The equilibrium dissociation constants (KD, inversely proportional to TCR avidity) were determined as the concentrations of tetramers required to yield 50% of maximal binding. Data shown were obtained using the CD4^+ iNKT cell clone HDD3, and similar results (not shown) were obtained with a second CD4^+ clone (HDD11) and a CD4^−8^− double negative iNKT cell clone (HDE3). (C) Analysis of iNKT cell clones labeled with 20 nM of hCD1d tetramers which were loaded with variable excesses of analog to constant hCD1d (25 to 1000 fold molar excess of glycolipid to hCD1d protein). The measured MFI values were normalized as the percent of the maximum staining intensity obtained with each analog loaded tetramer. Data presented were generated with HDD3 (CD4+) iNKT cell clone, and similar results (not shown) were obtained with HDE3 (DN) clone.

[2] = tested on: human iNKT cell clones; assay: Cytokine ELISA of human iNKT cell clones stimulated with glycolipid-pulsed CD1d-transfected HeLa cells; format: cell-based; conditions: for EC50: Homo sapiens, iNKT, HDD3 clone, IL-4 levels did not reach a plateau; for iNKT cell clone cytokine response / agonist activity: dose range, IFNγ, IL-4, IL-13, clones HDD3, HDD11, HDE3, HDA7
Protocol: Capture ELISA assays were used for measurement of cytokine responses of human iNKT cells to αGalCer analogs. One day prior to the experiment, CD1d transfected HeLa cells were plated at 25×10^3 cells/well in 100 µL of medium in flat-bottom 96 well plates. Glycolipids were then added in 100 µL of medium to give final concentrations ranging from 0.05 to 10^4 nM. The APCs were incubated for approximately 18 hours with the glycolipids and then irradiated (10,000 Rad) and washed twice with PBS prior to addition of 25×10^3 iNKT cells well in 300 µL. Supernatants were harvested after 24 hours of co-culture and stored frozen at -20°C. After thawing, aliquots of the supernatants were assayed for specific cytokines by ELISA using capture and biotin-labeled detection antibody pairs specific for GM-CSF, IL-2, IL-4, IL-12p70 and IL-13 (all obtained from BD Biosciences), IFNγ (Thermo-Scientific) or IL-18 (MBL). Specific signals were developed using HRP- conjugated streptavidin (BD Biosciences) and Turbo TMB substrate (Thermo-Scientific). Supernatants were tested pure and/or diluted to give values within a quantitative linear standard curve generated with recombinant cytokines. Curves of dose-dependent cytokine responses and graphs were plotted using the Graphpad Prism Software. EC50 values were calculated using the function log (agonist) response with variable slope, and statistical analyses were carried out using the same software. To calculate concentration-dependent cytokine ratios, IL-4/IFNγ and IL-13/IFNγ ratios were calculated using cytokine values from which background levels (i.e. levels in cultures receiving DMSO vehicle alone) were subtracted. Ratios were calculated by dividing IL-4 or IL-13 concentrations in pg/mL by IFNγ concentration in ng/mL.

[3] = tested on: human iNKT cells and NK cells; assay: In vitro transactivation assay (CFSE-labeled iNKT cells co-cultured with PBMC); format: cell-based; conditions: 24 h; for IL-12 levels in supernatants / IL-13 levels in supernatants / IL-18 levels in supernatants / global IFNγ production in supernatants / ability to activate iNKT cells and stimulate NK cell transactivation (IFNγ+ cells): 100 nM; for IL-12 levels in supernatants / IL-13 levels in supernatants / IL-18 levels in supernatants / global IFNγ production in supernatants: ELISA; for ability to activate iNKT cells and stimulate NK cell transactivation (IFNγ+ cells): iNKT/PBMC 1/10, compared with KRN7000
Protocol: iNKT cells were stained for 5 minutes with 1–20 µM of CFSE (Molecular probes) and 5% FCS in PBS and washed twice. As a positive control, a fraction of CFSE-labeled iNKT cells were preactivated for 30 minutes with 1 µg/mL of PMA and 250 ng/mL of Ionomycin (Sigma-Aldrich) in culture medium and extensively washed. The experiment was initiated by adding CFSE-labeled unstimulated or PMA/Ionomycin-preactivated iNKT cells to freshly prepared PBMC pulsed with vehicle or αGalCer analogs at the indicated concentrations and at an iNKT/PBMC ratio of 1/10 or 1/40. Supernatants and cells were harvested from parallel conditions after the indicated time of co-culture. For intracellular cytokine staining, brefeldin A (Golgiplug, BD Biosciences) was added 4 h before harvesting the cells, which were fixed with 1% paraformaldehyde and permeabilized with 0.1% saponin (Sigma-Aldrich) prior to mAb staining. Experiments with blocking antibodies were performed with 10 µg/mL of preservative-free mAbs, including isotype matched control, anti-IL-2, anti-IL-12, anti-IFNγ and anti-CD40L (all from BD Biosciences) or anti-IL-18 (MBL). For detection of CD40L expression by iNKT cells, co-cultures of iNKT and PBMC were prepared as above, except that monensin (Golgistop, BD Biosciences) and fluorescent CD40L specific mAb (1/10 or 1/20 final dilution) were added at the beginning of the experiment, as previously described.
Figure 6 A novel in vitro “transactivation assay” to assess the ability of human iNKT cells to activate other leukocytes. (A) Format for analysis of transactivation of bystander leukocytes. Flow cytometric analysis was carried out for culture containing iNKT cells co-cultured for 24 hours with fresh human PBMC at a 1/10 ratio. For the intracellular detection of IFNγ, Brefeldin A was added for the last 4 hours. Representative electronic gating is shown for the discrimination of CFSE-labeled iNKT cells, B cells, T cells, and NK cells to measure IFNγ expression (or CD69 expression, not shown). Filled black histograms show staining with vehicle control and are overlaid with open gray histograms for stimulation with 100 nM of KRN7000. (B) Dose-dependent IFNγ and CD40L expression by iNKT cells (top and middle graph, respectively) and IFNγ production by transactivated NK cells (bottom graph), after 24 h of co-culture of CFSE-labeled iNKT cells and PBMCs at a 1/10 ratios and the indicated concentration of either KRN7000 (black filled circles) or the adamantanoyl (AD) analog (open circles). Data are presented for a CD4^+ clone (HDD3), and similar results (not shown) were obtained with a DN clone (HDE3). (C) Effect of specific blockade of various cytokines and CD40L on the activation of iNKT cells and transactivated NK cells. CFSE-labeled iNKT cells and PBMCs were co-cultured at a 1/40 ratio for the indicated time, in the presence of KRN7000 at 25 nM and 10 µg/mL of isotype matched control or specific blocking antibodies as indicated. Average percentages of IFNγ^+ iNKT cells and NK cells, assessed by intracellular staining at 24, 48 and 66 hours, are indicated in the left and right plots, respectively.
Figure 7 Comparison of αGalCer analogs for their ability to induce NK cell transactivation. (A) iNKT cell clones were co-cultured for 24 hours with fresh human PBMC at a 1/10 ratio with 100 nM of the indicated analogs, and Brefeldin A was added for the last 4 hours. The percentages of IFNγ^+ iNKT cells (open bars) and IFNγ^+ NK cells (filled bars) are indicated. Cytokine levels were assessed by ELISA in supernatants from identical conditions in absence of Brefeldin A treatment: (B) IFNγ levels (open bars) and IL-13 levels (filled bars); the detection limit was 82.3 ng/mL for both cytokines. (C) IL-12 levels (open bars) and IL-18 levels (filled bars); the detection limit was 27.4 ng/mL. Results obtained with a CD4^+ clone (HDD3) are presented, and similar data (not shown) were obtained with a DN clone (HDE3).

[4] = tested on: human iNKT cells; conditions: cited from earlier work
[5] = molecular target: Human iNKT TCRs (Homo sapiens, UniProt A0A075B6N4+A0A0B4J240+P15813); assay: Equilibrium binding of analog-loaded hCD1d tetramers to iNKT cell clones
Chain of Human iNKT TCRs (P15813 20-301): as the sequence (P15813 20-301 limits assumed) above
Chain of Human iNKT TCRs (P01848 whole entry, further chain): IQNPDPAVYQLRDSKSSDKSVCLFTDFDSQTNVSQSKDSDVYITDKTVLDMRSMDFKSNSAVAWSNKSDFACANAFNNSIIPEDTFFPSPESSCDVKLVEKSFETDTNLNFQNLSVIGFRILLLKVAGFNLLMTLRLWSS
Chain of Human iNKT TCRs (A0A0B4J240 22-114): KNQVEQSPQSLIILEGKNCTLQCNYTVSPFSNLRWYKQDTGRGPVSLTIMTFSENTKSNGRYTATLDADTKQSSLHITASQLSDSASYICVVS
Chain of Human iNKT TCRs (P61769 21-119, further chain): as the sequence (P61769 21-119 partner) above
Chain of Human iNKT TCRs (A0A075B6N4 22-114): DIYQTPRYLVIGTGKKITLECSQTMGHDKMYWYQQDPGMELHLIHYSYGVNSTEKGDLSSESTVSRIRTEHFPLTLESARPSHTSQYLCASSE
Source text: For flow cytometric analysis, 6B11 (Vα24Jα18 specific) and mAbs specific for human CD3, CD4, CD8α, CD19, CD40L (CD154), CD56, CD69, GM-CSF & IFNγ were obtained from BD Biosciences. IL-4 and IL-13 specific mAbs were from Biolegend. Vα24 (C15) and Vβ11 (C21) specific mAb were from Immunotech. For antibody blocking in culture assays, non-specific isotype matched control, IL-2, IFNγ, IL-12p70 and CD40L specific mAbs without preservatives were obtained from BD Biosciences and IL-18 specific mAb from Medical & Biological Laboratories (MBL, Nagoya, Japan). Phycoerythrin and allophycocyanin labeled human CD1d tetramers were prepared in our laboratory as previously described. Curves of tetramer equilibrium binding constants and graphs were plotted using the Graphpad Prism Software (Version 5). KD values were calculated using the function non-linear fit (hyperbola, one binding site).
as §1, §2

| SMILES | lipid excess at which tetramers were efficiently loaded [1] | EC50 [2] [µM] | IL-12 levels in supernatants [3] | IL-13 levels in supernatants [3] | IL-18 levels in supernatants [3] | global IFNγ production in supernatants [3] | ability to activate iNKT cells and stimulate NK cell transactivation (IFNγ+ cells) [3] | CD40L and IFNγ expression by iNKT cells ([3]; iNKT/PBMC 1/10, dose range) | reactivity of HDD3 iNKT cell clone ([2]; CD4+ clone HDD3) | reactivity of a fraction of the iNKT cell clones tested ([2]; primarily IL-13 production, limited induction of IFNγ) | clones with detectable reactivity ([2]; six clones tested) | stimulation of human iNKT cells in culture [4] | staining of iNKT cell clones by analog-loaded hCD1d tetramers [5] | binding to hCD1d [1] | iNKT cell clone cytokine response / agonist activity [2] |
| --- | --- | --- | --- | --- | --- | --- | --- | --- | --- | --- | --- | --- | --- | --- | --- |
| CCCCCCCCCCCCCC[C@@H](O)[C@@H](O)[C@H](CO[C@H]1O[C@H](CO)[C@H](O)[C@H](O)[C@H]1O)NC(=O)C12CC3CC(CC(C3)C1)C2 [AD] | 25–50 fold | > 10 | undetectable | lower, but still detectable, IL-13 levels | remained low | lower global IFNγ production | lower degree of iNKT cell activation with a limited transactivation of NK cells | induced with high doses |  |  |  |  |  |  |  |
| CCCCCCCCCCCCCC[C@@H](O)[C@@H](O)[C@H](CO[C@H]1O[C@H](CO)[C@H](O)[C@H](O)[C@H]1O)NC(=O)c1cccc(Br)c1 [BB] | 25–50 fold | > 10 | undetectable | lower, but still detectable, IL-13 levels | remained low | lower global IFNγ production | lower degree of iNKT cell activation with a limited transactivation of NK cells |  |  |  |  |  |  |  |  |
| CCCCCCCCCCCCCCCCCCCCCCCCCC(=O)N[C@@H](CC[C@H]1O[C@H](CO)[C@H](O)[C@H](O)[C@H]1O)[C@H](O)[C@H](O)CCCCCCCCCCCCCC [C-glycoside] |  |  |  |  |  |  |  |  | did not display detectable reactivity | weak, but detectable, reactivity | Two clones out of six clones tested | only weakly stimulatory | only a weak staining intensity of a subset of iNKT cell clones tested |  |  |
| CCCCCCCCCCCCCC[C@@H](O)[C@@H](O)[C@H](CO[C@H]1O[C@H](CO)[C@H](O)[C@H](O)[C@H]1O)NC(=O)c1ccc(F)c(F)c1 [DFB] | much higher lipid excess was necessary | > 10 | undetectable | lower, but still detectable, IL-13 levels | remained low | lower global IFNγ production | lower degree of iNKT cell activation with a limited transactivation of NK cells |  |  |  |  |  |  | weak binding to hCD1d |  |
| CCCCCCCCCCCCCC[C@@H](O)[C@@H](O)[C@@H](N)CO[C@H]1O[C@H](CO)[C@H](O)[C@H](O)[C@H]1O [Lyso] |  |  | undetectable | lower, but still detectable, IL-13 levels | remained low | lower global IFNγ production | lower degree of iNKT cell activation with a limited transactivation of NK cells |  |  |  |  |  | failed to detectably stain any of our iNKT cell clones |  | substantially lower iNKT cell response |
| CCCCCCCCCCCCCC[C@@H](O)[C@@H](O)[C@H](CO[C@H]1O[C@H](CO)[C@H](O)[C@H](O)[C@H]1O)NC(=O)c1ccc(C)cc1 [Tol] | 25–50 fold |  | detectable IL-12 generation | high IL-13 levels | enhanced IL-18 levels compared to vehicle control | high global production of IFNγ |  |  |  |  |  |  |  |  | substantially lower iNKT cell response |
